Results: patent publication US20180291043A1, “BENZOCYCLOOCTENE-BASED AND INDENE-BASED ANTICANCER AGENTS” (BAYLOR UNIVERSITY, priority 2016, published 2018)
“Also recorded” adds a separate entry of the source. Like-named read-outs stand apart in the source and are kept apart here.

Key:
[1] = tested on: SK-OV-3; assay: SRB assay, growth inhibition, SK-OV-3; format: cell-based, human; settings: 48 h treatment, average of n ≥ 3
Method: (§1) Inhibition of growth of human cancer cells was assessed using the sulforhodamine B assay (SRB), as described in Monks et al., 1991. Cancer cell lines (DU-145, SK-OV-3, and NCI-H460) were plated at 7500-8000 cells/well into 96-well plates using DMEM supplemented with 5% fetal bovine serum/1% gentamicin sulfate and incubated for 24 h at 37° C. in a humidified incubator. Compound serial dilutions were then added. After 48 h treatment, the cells were fixed with trichloroacetic acid (10% final concentration), washed, dried, stained with sulforhodamine B dye (Acid red 52), washed to remove excess dye, and dried. SRB dye was solubilized, and absorbances were measured at wavelength 540 nm and normalized to values at wavelength 630 nm using an automated Biotek plate reader.

[2] = tested on: purified bovine brain tubulin; assay: Inhibition of tubulin polymerization (tubulin assembly); format: biochemical; settings: 10 μM tubulin, extent of assembly after 20 min at 30° C.; read-out: Inhibition of tubulin polymerization IC50 (μM) ± SD
Method: Inhibition of Tubulin Polymerization
Tubulin assembly experiments were performed in 0.25 mL reaction mixtures (final volume) (Hamel, 2003). The mixtures contained 1 mg/mL (10 μM) purified bovine brain tubulin, 0.8 M monosodium glutamate (pH 6.6), 4% (v/v) dimethyl sulfoxide, 0.4 mM GTP, and different compound concentrations. All reaction components except GTP were preincubated for 15 min at 30° C. in 0.24 mL. The mixtures were cooled to 0° C., and 10 μL of 10 mM GTP were added. Reaction mixtures were transferred to cuvettes held at 0° C. in Beckman DU-7400 and DU-7500 spectrophotometers equipped with electronic temperature controllers. The temperature was jumped to 30° C., taking about 30 s, and polymerization was followed at 350 nm for 20 min.

[3] = tested on: DU-145; assay: SRB assay, growth inhibition, DU-145; format: cell-based, human; settings: 48 h treatment, average of n ≥ 3
Method: as §1

[4] = tested on: NCI-H460; assay: SRB assay, growth inhibition, NCI-H460; format: cell-based, human; settings: 48 h treatment, average of n ≥ 3
Method: as §1

[5] = tested on: human cancer cell lines (DU-145, SK-OV-3, NCI-H460); assay: SRB cytotoxicity, statements over the three human cancer cell lines; format: cell-based; settings: all three human cancer cell lines
Method: as §1

[6] = tested on: MCF7-luc-GFP-mCherry breast tumor; assay: Bioluminescence imaging (BLI) of vascular disruption in tumor-bearing mice; format: in vivo, SCID mice; settings: for reduction in bioluminescence (decrease compared to baseline or saline control): single dose 120 mg/kg ip, 4 h after compound injection, p<0.05
Method: Human breast cancer cells, MCF7-luc-GFP-mCherry (ATCC), were transfected sequentially with a lentivirus containing firefly luciferase reporter, GFP and mCherry reporter genes, as described in Liu et al., 2012. Highly expressing stable clones were isolated. Induction of tumors was carried out by injecting 10^6 cells mixed with 50% Matrigel™ (BD Biosciences, San Jose, Calif.) into the right upper ventral mammary fat pads of female SCID-NOD mice (UTSW breeding colony). Tumors were allowed to grow to a size of 10-12 mm in diameter, determined by calipers, before selection for BLI. All animal procedures were approved by the University of Texas Southwestern Medical Center Institutional Animal Care and Use Committee.
Bioluminescence imaging was carried out as described in Liu et al., 2012. Briefly, anesthetized, tumor bearing mice (O2, 2% isoflurane, Henry Schein Inc., Melville, N.Y.) were injected subcutaneously in the fore-back neck region with 80 μL of a solution of luciferase substrate, D-luciferin (sodium salt, 120 mg/kg, in saline, Gold Biotechnology, St. Louis, Mo.). Mice were maintained under anesthesia (2% isoflurane in oxygen, 1 dm^3/min), while baseline bioluminescence imaging was performed using a Caliper Xenogen IVIS® Spectrum (Perkin-Elmer, Alameda, Calif.). A series of BLI images was collected over 35 min using the following settings: auto exposure time, f-stop=2, Field of view=D, binning=4 (medium). Light intensity-time curves obtained from these images were analyzed using Living Image® software and light emission compared based on area under the light emission curve. Mice were injected intraperitoneally with either 120 μL of saline (vehicle), CA4P (provided by Mateon Therapeutics, Inc.; 120 mg/kg in saline as used in Mason et al., 2011 or analogue 24 (120 mg/kg) in saline immediately after baseline BLI. Bioluminescence imaging was repeated, with new luciferin injections 4, 24, and 48 h later.
Bioluminescence imaging (BLI) is a highly valuable modality with diverse applications in a wide range of biological models and systems. BLI is a particularly useful tool for assessing and quantifying in vivo blood flow reduction following treatment with a VDA. In the current study MCF7 human breast cancer cells, which had been previously transfected stably to express the enzyme luciferase, as well as two fluorescent proteins, as designated by MCF7-luc-GFP-mCherry were implanted in SCID mice. Since the luciferase substrate luciferin can be delivered to the tumor via the blood stream, damage to the vessels by a VDA can be quantified by measurement of reduced bioluminescence upon injection of luciferin. […]

[7] = Limited dose escalation study (tolerability); format: in vivo, non-tumor bearing SCID mice; settings: dose of 120 mg/kg; dose escalation 60-150 mg/kg; MTD not yet determined
[8] = tested on: MCF7-luc-GFP-mCherry breast tumor; assay: Histological assessment of tumor necrosis (H&E); format: in vivo, SCID mice; settings: 120 mg/kg, 48 h post treatment
Method: Following the 48 h BLI data acquisition, the tumors were excised, bisected and fixed in 4% paraformaldehyde solution. Tumor tissue was processed for paraffin embedding, sectioned and stained by routine methods. H&E staining was performed on one cross section from each tumor. Whole mount high resolution microscopy was obtained using a Zeiss Axioscan Z1 digital slide scanner. […] Thus, analogue 24 may be a therapeutically useful VDA.

[9] = tested on: purified bovine brain tubulin; settings: Data from Pettit et al., 2000; read-out: Inhibition of tubulin polymerization IC50 (μM) ± SD; cited from earlier work
[10] = tested on: NCI-H460; settings: Data from Devkota et. al., 2016; read-out: GI50 (μM) SRB assay NCI-H460; cited from earlier work
[11] = tested on: SK-OV-3; settings: Data from Devkota et. al., 2016; read-out: GI50 (μM) SRB assay SK-OV-3; cited from earlier work
[12] = tested on: DU-145; settings: Data from Devkota et. al., 2016; read-out: GI50 (μM) SRB assay DU-145; cited from earlier work
[13] = tested on: tubulin; assay: Colchicine binding assay (inhibition of [3H]colchicine binding to tubulin)
Method: Inhibition of [^3H]colchicine binding to tubulin was measured using reaction mixtures (100 μL each) containing 1.0 μM tubulin, 5.0 μM [^3H]colchicine (from Perkin-Elmer), 5% (v/v) dimethyl sulfoxide, […], and components that stabilize the colchicine binding activity of tubulin (Hamel et al., 1981) (1.0 M monosodium glutamate [adjusted to pH 6.6 with HCl in a 2.0 M stock solution], 0.5 mg/mL bovine serum albumin, 0.1 M glucose-1-phosphate, 1.0 mM MgCl2, and 1.0 mM GTP). […] Reactions were stopped with 2.0 mL of ice-cold water, and the reaction mixtures were placed on ice. Each sample was poured onto a stack of two DEAE-cellulose filters (from Whatman), followed by 6 mL of ice-cold water. The samples were aspirated under reduced vacuum. The filters were washed three times with 2 mL water and placed into vials containing 5 mL of Biosafe II scintillation cocktail. Samples were counted 18 h later in a Beckman scintillation counter. Samples with inhibitors were compared to samples with no inhibitor, and percent inhibition was determined. All samples were corrected for the amount of radiolabel bound to the filters in the absence of tubulin.

[14] = inhibitor at 5 μM, 1.0 μM tubulin, 5.0 μM [3H]colchicine

Row | SMILES | GI50 ([1]; Homo sapiens, SK-OV-3) | IC50 [2] | GI50 ([3]; Homo sapiens, DU-145) | GI50 ([4]; Homo sapiens, NCI-H460) | % Inhibition of colchicine binding ± SD [13, 14] | also measured
1 | COc1cc(C2=CCc3c2ccc(OC)c3OC)cc(OC)c1OC [Compound 28, 6,7-Dimethoxy-3-(3′,4′,5′-trimethoxyphenyl)-1H-indene] | 9460 nM | > 20 µM | 34600 nM | 42200 nM | – | –
2 | COc1cc(C2=CCCCCc3c2ccc(OC)c3OP(=O)([O-])[O-])cc(OC)c1OC.[Na+].[Na+] [Compound 24, Sodium 2-methoxy-5-(3′,4′,5′-trimethoxyphenyl)-benzocyclooct-5-en-1-yl phosphate] | 36.6 nM | > 20 µM | 41 nM | 26 nM | – | GI50 values / cytotoxicity range in words [5]: submicromolar; bioluminescence intensity at 24 and 48 h ([6]; 120 mg/kg ip, 24 and 48 h post administration, phosphate): the effect continued at both 24 and 48 h; also recorded: remained significantly below baseline values; vascular shutdown / reduction of blood flow as evidenced by BLI ([6]; 120 mg/kg, 4 h post administration, phosphate): significant vascular shutdown; also recorded: significant in vivo reduction of blood flow; reduction in bioluminescence (decrease compared to baseline or saline control) [6]: approximately 80%; tolerability of dose [7]: tolerated; tumor necrosis (H&E staining) compared with saline control [8]: much more extensive necrosis
3 | COc1ccc(/C=C\c2cc(OC)c(OC)c(OC)c2)cc1OP(=O)(O)O [CA4P, Combretastatin A-4P, reference compound] | – | – | – | – | – | reduction in bioluminescence (decrease compared to baseline or saline control) [6]: approximately 80%; GI50 [1]: 1.9 nM; tumor necrosis (H&E staining) compared with saline control [8]: much more extensive necrosis; IC50 [9]: > 20 µM; GI50 [3]: 3.36 nM; GI50 [4]: 2.82 nM
4 | COc1ccc(/C=C\c2cc(OC)c(OC)c(OC)c2)cc1O [CA4] | – | – | – | – | – | GI50 [10]: 0.005 µM; GI50 [11]: 0.00506 µM; GI50 [12]: 0.00602 µM; IC50 [9]: […]; % Inhibition of colchicine binding ± SD ([13]; inhibitor at 1 μM): […]
5 | COc1cc(C2=CCc3c2ccc(OC)c3OP(=O)(O)O)cc(OC)c1OC [Compound 32, Sodium 6-methoxy-3-(3′,4′,5′-trimethoxyphenyl)-1H-inden-7-yl phosphate] | 334 nM | > 20 µM | 3340 nM | 1500 nM | – | –
6 | COc1ccc2c(c1)CC=C2c1cc(OC)c(OC)c(OC)c1 [Compound 29, 6-Methoxy-3-(3′,4′,5′-trimethoxyphenyl)-1H-indene] | 6150 nM | > 20 µM | 4660 nM | 4020 nM | – | –
7 | COc1ccc2c(c1O)CCCC=C2c1cc(OC)c(OC)c(OC)c1 [KGP18, reference compound] | – | 1.4 µM | – | – | – | GI50 values / cytotoxicity range in words [5]: subnanomolar; GI50 values / cytotoxicity range in words ([5]; listed as KPG18): sub-nM; GI50 [1]: 0.0543 nM; GI50 [3]: 0.0249 nM; GI50 [4]: 0.0418 nM
8 | COc1ccc2c(c1O)CC=C2c1cc(OC)c(OC)c(OC)c1 [Compound 31, 6-Methoxy-3-(3′,4′,5′-trimethoxyphenyl)-1H-inden-7-ol] | 704 nM | 11 µM | 362 nM | 388 nM | 17 ± 5 (5 μM) % | –
9 | COc1cc(C2=CCCCCc3c2ccc(OC)c3OC)cc(OC)c1OC [Compound 20, 1,2-Dimethoxy-5-(3′,4′,5′-trimethoxyphenyl)-benzocyclooct-5-ene] | 512 nM | 4.5 ± 0.5 µM | 448 nM | 395 nM | 31 ± 0.6 (5 μM) % | –
10 | COc1ccc2c(c1O)CCCCC=C2c1cc(OC)c(OC)c(OC)c1 [Compound 23, 1-Hydroxy-2-methoxy-5-(3′,4′,5′-trimethoxyphenyl)-benzocyclooct-5-ene] | 81.1 nM | 1.2 µM | 105 nM | 107 nM | 78% | GI50 values / cytotoxicity range in words [5]: submicromolar
11 | COc1ccc2c(c1)CCCCC=C2c1cc(OC)c(OC)c(OC)c1 [Compound 21, 2-Methoxy-5-(3′,4′,5′-trimethoxyphenyl)-benzocyclooct-5-ene] | 400 nM | 3 ± 0.1 µM | 570 nM | 431 nM | 29 ± 5 (5 μM) % | –
